Data reported in US10961233B2 (LIFEARC, priority 2016, dated 2021).
pEC50, pIC50: −log10 of the molar value.

Columns and labels:
WT full length PAICS = WT full length PAICS (Homo sapiens (Human), UniProt P22234); experiment: Biochemical assay to measure PAICS activity (Transcreener ADP2 FI); settings: SAICAR synthetase reaction, ADP detection, 30 min pre-incubation
Text: Biochemical Assay to Measure PAICS Activity
The biochemical assay was used to measure PAICS SAICAR synthetase-mediated conversion of CAIR, aspartic acid and ATP to SAICAR, ADP and inorganic phosphate (Pi), post-AIR/CAIR equilibration (see FIG. 3). This was achieved by detecting the ADP generated during the reaction, using Bellbrook Lab's Transcreener ADP^2 FI assay. An increase in the fluorescence intensity is directly proportional to the amount of PAICS activity.
The Transcreener ADP^2 FI assay is a homogeneous competitive displacement fluorescence intensity assay which uses direct immunodetection of ADP. Displacement of the tracer by ADP causes an increase in the fluorescence at excitation 590 nm and emission 617 nm (FIG. 3).
5 μl WT full length PAICS (final assay concentration, fac, 2.5 nM) in basic buffer, added to black, non-binding, 384-well plates (Corning #3575), columns 1 to 22. 5 μl basic buffer was added to columns 23+24 (negative control). PAICS stock at 31.9 μM from the PI's lab (Steve Firestine). Basic buffer contained 50 mM Tris-HCl pH8 and 0.5 mM EDTA, fac.
1 μl compound in 100% DMSO added per well, or 1 μl 100% DMSO to positive controls (columns 1+2) and negative controls (columns 23+24). Final assay top concentration of compound either 1 mM or 30-μM, serially diluted with half-log dilutions across the plate in duplicate (one 10-point concentration response curve across wells 3 to 12, another across 13 to 22). Compounds pre-incubated with PAICS enzyme for 30 mins at RT. 2 μl CAIR added (fac 10 μM) in basic buffer plus 25 mM MgCl2 and 50 mM KHCO3 fac to all wells. CAIR stock 50 mM from Steve Firestine's lab. 1 hr RT incubation for AIR-CAIR equilibration. NB: ˜50% CAIR is decarboxylated during equilibration therefore 5 μM remains for the synthetase reaction.
2 μl ATP/aspartic acid added (fac 30 μM/180 μM) in reaction buffer to all wells. 30 mins RT incubation for appropriate level of ATP turnover. Reaction buffer contained basic buffer plus 10 mM DTT, 0.01% BSA and 0.01% Brij 35, fac.
10 μl ADP detection reagent added to all wells (as per instructions, Transcreener ADP^2 FI kit, BellBrook Labs #3013-10K). Incubation for 1 h at RT to allow antibody equilibration. Fluorescence intensity determined using a Tecan Safire2 (excitation at 590 nm, emission at 617 nm).

[1] = system: LM2 and MDA-MB-231 breast cancer cell lines; experiment: PAICS 2D cell proliferation assay (CellTiter-Glo viability, 72 h); format: cell-based; settings: Homo sapiens; 72 h incubation; cell line not given
Method: PAICS 2D Cell Proliferation Assay
Frozen cryovial stocks of LM2 and MDA-MB-231 breast cancer cell lines were thawed and cultured in 4.5 g/L glucose DMEM (31966-047, Invitrogen) supplemented with 10% Fetal Bovine Serum (10500-064, Invitrogen) until confluent in a T175 flask. Cells were incubated at 37° C. with 5% CO2 in a humidified incubator.
Cells were collected from T175 flasks by washing with PBS (10010-056, Invitrogen) and dissociated using Accutase (A6964, Sigma Aldrich). This was followed by centrifuging (1200 rpm, 5 min) and resuspending the cells in 10 ml of media containing 1% penicillin/streptomycin (15140-122, Invitrogen). Cells were counted by trypan blue exclusion method using an automated cell counter (Cellometer) and diluted to a concentration of 40,000/ml. 1000 cells were then seeded into 384-well white-walled plates (Corning, 3707) in a volume of 25 μl. Plates were Incubated overnight at 37° C. with 5% CO2.
After 24 hours, PAICS compounds were added onto the assay plates using an HP D300 Digital Dispenser (Hewlett Packard). 10 mM stocks were used and dispensed as a 10 point concentration response curve (CRC) ½ log dilution series with a final top concentration of 100 μM. Controls were added onto each plate: positive controls included Staurosporine CRC (100 μM stock dispensed as a 10 point CRC ½ log dilution series with a final top concentration of 1 μM) and PAICS compound MRT00211919 (10 mM stock dispensed as a 10 point CRC ½ log dilution series with a final top concentration of 100 μM); a high control of Staurosporine (0.1 μM (LM2), 0.316 μM (MDA-MB-231) FAC) and a low control of media containing 1% DMSO. A final concentration of 1% DMSO was then added across the plates for normalisation. Following compound addition, assay plates were incubated for 72 hours at 37° C. with 5% CO2.
Day 5—Cytotoxicity and Cell Viability Assays
After 72 h incubation, dead and viable cells were measured in each assay plate. Cytotoxicity was assessed through fluorescent DNA staining using the CellTox™ Green Cytotoxicity Assay kit (G8743, Promega) following the manufacturer's multiplexing protocol. Impaired cell membrane integrity results in the access of dye to stain DNA allowing quantification of dead cells. Cell viability was determined following ATP quantification using the CellTiter-Glo® Luminescent Cell Viability Assay kit (G7572, Promega) following the manufacturer's protocol. ATP released from lysed cells allowed for the generation of a signal proportional to the number of cells present in the well. All endpoint reads were performed using the PheraSTAR Plus (BMG Labtech). Data is expressed as % viable cells and % dead cells against controls (mean±SEM of duplicate curves).

Chain of WT full length PAICS (P22234 whole entry): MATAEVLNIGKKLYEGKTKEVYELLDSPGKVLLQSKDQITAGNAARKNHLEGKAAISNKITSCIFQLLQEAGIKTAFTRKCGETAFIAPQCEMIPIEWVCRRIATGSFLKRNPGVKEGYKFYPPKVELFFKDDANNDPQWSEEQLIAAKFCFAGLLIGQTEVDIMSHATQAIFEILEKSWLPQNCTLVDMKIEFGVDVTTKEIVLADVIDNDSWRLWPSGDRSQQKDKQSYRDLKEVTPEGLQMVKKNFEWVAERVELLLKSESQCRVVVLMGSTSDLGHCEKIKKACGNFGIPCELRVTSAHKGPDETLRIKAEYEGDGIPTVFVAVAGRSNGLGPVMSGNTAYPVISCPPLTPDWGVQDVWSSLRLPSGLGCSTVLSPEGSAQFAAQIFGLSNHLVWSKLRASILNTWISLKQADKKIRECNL

SMILES	pIC50 (WT full length PAICS)	pEC50 [1]
CN1CCC(S(=O)(=O)N2CCN(c3ccc(Cl)c(NC(=O)c4coc(N)n4)c3)CC2)CC1 [Example 87, 2-Amino-N-{2-chloro-8-(4-[(1-methylpiperidin-4-yl)sulfonyl]piperazin-1-yl}phenyl)-1,3-oxazole-4-carboxamide]	7.60 to 8.00	6.30 to 6.60
CCNCCCS(=O)(=O)N1CCN(c2ccc(Cl)c(NC(=O)c3coc(N)n3)c2)CC1 [Example 74]	> 8.00	6.30 to 6.60
CNCCOC(=O)N1CCN(c2ccc(Br)c(NC(=O)c3coc(N)n3)c2)CC1 [Example 25, 2-(Methylamino)ethyl 4-(3-(2-aminooxazole-4-carboxamido)-4-bromophenyl)piperazine-1-carboxylate]	7.60 to 8.00	6.60 to 7.00
CN1CC(COC(=O)N2CCN(c3ccc(Cl)c(NC(=O)c4coc(N)n4)c3)CC2)C1 [Example 20, (1-Methylazetidin-3-yl) methyl 4-(3-(2-aminooxazole-4-carboxamido)-4-chlorophenyl) piperazine-1-carboxylate]	7.60 to 8.00	6.00 to 6.30
CCN(CC)CCCS(=O)(=O)N1CCN(c2ccc(Br)c(NC(=O)c3coc(N)n3)c2)CC1 [Example 77, 2-Amino-N-[2-bromo-5-(4-{[3-(diethylamino)propyl]sulfonyl}piperazin-1-yl)phenyl]-1,3-oxazole-4-carboxamide]	> 8.00	> 7.00
CN(C)CCS(=O)(=O)N1CCN(c2ccc(Br)c(NC(=O)c3coc(N)n3)c2)CC1 [Example 54, 2-Amino-N-[2-bromo-5-(4-{[2-(dimethylamino)ethyl]sulfonyl}piperazin-1-yl)phenyl]-1,3-oxazole-4-carboxamide]	> 8.00	6.60 to 7.00
CN1CC(OC(=O)N2CCN(c3ccc(Br)c(NC(=O)c4coc(N)n4)c3)CC2)C1 [Example 28, 1-Methylazetidin-3-yl 4-(3-{[(2-amino-1,3-oxazol-4-yl)carbonyl]amino}-4-bromophenyl)piperazine-1-carboxylate]	7.60 to 8.00	6.30 to 6.60
CSc1ccc(N2CCN(C(=O)OCCCN(C)C)CC2)cc1NC(=O)c1coc(N)n1 [Example 26, 3-(Dimethylamino)propyl-4-[3-{[(2-amino-1,3-oxazol-4-yl)carbonyl]amino}-4-(methylsulfanyl)phenyl]piperazine-1-carboxylate]	–	6.00 to 6.30
CN1CC(CN2CCN(c3ccc(Br)c(NC(=O)c4coc(N)n4)c3)CC2=O)C1 [Example 44]	7.60 to 8.00	6.00 to 6.30
CN(C)CCNCCS(=O)(=O)N1CCN(c2ccc(Cl)c(NC(=O)c3coc(N)n3)c2)CC1 [Example 60]	7.60 to 8.00	6.30 to 6.60
Nc1nc(C(=O)Nc2cc(N3CCN(S(=O)(=O)C4CCNCC4)CC3)ccc2Cl)co1 [Example 86, 2-Amino-N-{2-chloro-5-[4-(piperidin-4-ylsulfonyl)piperazin-1-yl]phenyl}-1,3-oxazole-4-carboxamide]	7.60 to 8.00	6.30 to 6.60
CCNCCS(=O)(=O)N1CCN(c2ccc(Cl)c(NC(=O)c3coc(N)n3)c2)CC1 [Example 65, 2-Amino-N-[2-chloro-5-(4-{[2-(ethylamino)ethyl]sulfonyl}piperazin-1-yl)phenyl]-1,3-oxazole-4-carboxamide]	7.60 to 8.00	6.60 to 7.00
CN1CCC(NCCS(=O)(=O)N2CCN(c3ccc(Br)c(NC(=O)c4coc(N)n4)c3)CC2)CC1 [Example 64, 2-Amino-N-{2-bromo-5-[4-({2-[(1-methylpiperidin-4-yl)amino]ethyl}sulfonyl)piperazin-1-yl]phenyl}-1,3-oxazole-4-carboxamide]	> 8.00	6.60 to 7.00
CN1CCC(S(=O)(=O)N2CCN(c3ccc(Br)c(NC(=O)c4coc(N)n4)c3)CC2)C1 (stereo not shown) [Example 89, 2-Amino-N-(2-bromo-5-{4-[(1-methylpyrrolidin-3-yl)sulfonyl]piperazin-1 yl}phenyl)-1,3-oxazole-4-carboxamide]	–	6.60 to 7.00
CNCC(C)CS(=O)(=O)N1CCN(c2ccc(Br)c(NC(=O)c3coc(N)n3)c2)CC1 (stereo not shown) [Example 78, 2-Amino-N-[2-bromo-5-(4-{[2-methyl-3-(methylamino)propyl]sulfonyl}piperazin-1-yl)phenyl]-1,3-oxazole-4-carboxamide]	–	> 7.00
CC(CN(C)C)CS(=O)(=O)N1CCN(c2ccc(Br)c(NC(=O)c3coc(N)n3)c2)CC1 (stereo not shown) [Example 82, 2-Amino-N-[2-bromo-5-(4-{[3-(dimethylamino)-2-methylpropyl]sulfonyl}piperazin-1-yl)phenyl]-1,3-oxazole-4-carboxamide]	–	6.60 to 7.00
CC(CN1CCCC1)CS(=O)(=O)N1CCN(c2ccc(Br)c(NC(=O)c3coc(N)n3)c2)CC1 (stereo not shown) [Example 71, 2-Amino-N-[2-bromo-5-(4-{[2-methyl-3-(pyrrolidin-1-yl)propyl]sulfonyl}piperazin-1-yl)phenyl]-1,3-oxazole-4-carboxamide]	–	> 7.00
CC(CNC(C)C)CS(=O)(=O)N1CCN(c2ccc(Br)c(NC(=O)c3coc(N)n3)c2)CC1 (stereo not shown) [Example 80, 2-Amino-N-[2-bromo-5-(4-{[2-methyl-3-(propan-2-ylamino)propyl]sulfonyl}piperazin-1-yl)phenyl]-1,3-oxazole-4-carboxamide]	–	> 7.00
CCN(CC)CC(C)CS(=O)(=O)N1CCN(c2ccc(Br)c(NC(=O)c3coc(N)n3)c2)CC1 (stereo not shown) [Example 81, 2-Amino-N-[2-bromo-5-(4-{[3-(diethylamino)-2-methylpropyl]sulfonyl}piperazin-1-yl)phenyl]-1,3-oxazole-4-carboxamide]	–	6.60 to 7.00
CSc1ccc(N2CCN(C(=O)OCCN(C)C)CC2)cc1NC(=O)c1coc(N)n1 [Example 27, 2-(Dimethylamino)ethyl 4-[3-{[(2-amino-1,3-oxazol-4-yl)carbonyl]amino}-4-(methylsulfanyl)phenyl]piperazine-1-carboxylate]	–	6.00 to 6.30
CCNCC(C)CS(=O)(=O)N1CCN(c2ccc(Br)c(NC(=O)c3coc(N)n3)c2)CC1 (stereo not shown) [Example 79, 2-Amino-N-[2-bromo-5-(4-{[3-(ethylamino)-2-methylpropyl]sulfonyl}piperazin-1-yl)phenyl]-1,3-oxazole-4-carboxamide]	–	> 7.00
Nc1nc(C(=O)Nc2cc(N3CCN(S(=O)(=O)C4CCNC4)CC3)ccc2Br)co1 (stereo not shown) [Example 88, 2-Amino-N-{2-bromo-5-[4-(pyrrolidin-3-ylsulfonyl)piperazin-1-yl]phenyl}-1,3-oxazole-4-carboxamide]	–	6.60 to 7.00
